Paper PMC10897476, “Pyridylpiperazine efflux pump inhibitor boosts in vivo antibiotic efficacy against K. pneumoniae” (EMBO Molecular Medicine, 2023)
Values joined by “and” are separate entries in the source; they are usually repeats but may differ in a detail not shown here. Equal entries are not always repeated.

Experiments:
Assay type in all cases: cell-based, Klebsiella pneumoniae
[1] = tested on: K. pneumoniae RamR^mut (K124*stop); experiment: MIC of antibiotics with and without EPI (REMA), RamR mutant; details: K. pneumoniae-RamR^mut, Table 2
Summary of the method: (§1)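 K. pneumoniae ATCC 43816 carrying single chromosomal acrB or ramR mutations introduced by allelic exchange, diluted to OD600 = 0.001 in CAMHB with EPI at final 100 µM. Incubated 37 °C up to 20 h; viability by resazurin fluorescence (Ex 530/Em 590 nm).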

[2] = tested on: K. pneumoniae AcrB^V448E; experiment: MIC of antibiotics with and without EPI (REMA), AcrB V448E mutant; details: K. pneumoniae-AcrB^V448E, Table 2
Summary of the method: as §1

[3] = tested on: K. pneumoniae ATCC 43816 (WT); experiment: Checkerboard assay levofloxacin x EPI, WT strain; details: for checkerboard growth readout: ATCC43816 WT, levofloxacin 0 ng/mL; for percentage resazurin turnover: individual replicates, listed as BDM91288; for Median REMA values (percentage resazurin turnover): median n=3
Method: (§2) MIC experiments were carried out according to the CLSI guidelines (CLSI [2023]). Overnight cultures were diluted to an OD600 = 0.001 in CAMHB followed by addition of efflux pump inhibitors (EPIs) at a final concentration of 100 µM. […] Plates were incubated at 37 °C for up to 20 h. Bacterial viability was evaluated using the resazurin microtitre assay (REMA) and measured by fluorescence using a Tecan Spaert multimode plate reader (Ex: 530 nm Em: 590 nm). MICs were defined as the concentration that prevented 90% of resazurin turnover compared to the non-treated bacteria.
(§3) Bacterial suspensions, incubation and plate readouts were carried out as described above.

[4] = tested on: K. pneumoniae RamR^mut (K124*stop); experiment: Checkerboard assay levofloxacin x EPI, RamR mutant; details: for checkerboard growth readout: ATCC43816 ramRmut, levofloxacin 0 ng/mL
Method: as §2, §3

[5] = tested on: K. pneumoniae AcrB^V448E RamR^mut; experiment: Checkerboard assay levofloxacin x EPI, double mutant; design: checkerboard growth readout: unit not given here; details: for checkerboard growth readout: ATCC43816 AcrBV448E ramRmut, levofloxacin 0 ng/mL
Method: as §2, §3

[6] = tested on: K. pneumoniae AcrB^V448E; experiment: Checkerboard assay levofloxacin x EPI, AcrB V448E mutant; details: for checkerboard growth readout: ATCC43816 AcrBV448E, levofloxacin 0 ng/mL; for Median REMA values / percentage resazurin turnover: Lev 0.00 ng/mL
Method: as §2, §3

For Clc1cc2cc(N3CCNCC3)ccc2nc1N1CCNCC1 [compound 5], the “EPI mediated antibiotic boosting, in words” value [1] was “maintained”, the “susceptibility of the strain to antibiotic boosting by the EPI, in words” value [2] was “resistant” and the checkerboard growth readout ([3]; EPI 2.3 µM) was 105. The checkerboard growth readout ([3]; EPI 4.7 µM) was 106, the checkerboard growth readout ([3]; EPI 9.4 µM) was 97 and the checkerboard growth readout ([3]; EPI 19 µM) was 85. It also gave a checkerboard growth readout ([3]; EPI 38 µM) of 109, a checkerboard growth readout ([3]; EPI 75 µM) of 121 and a checkerboard growth readout ([3]; EPI 150 µM) of 118. For the same compound, the checkerboard growth readout ([3]; EPI 300 µM) was 87, the “maximal boosting of levofloxacin activity (decrease of MIC)” value ([3]; K. pneumoniae WT (ATCC 43816), at 38 µM BDM91288) was 4 fold and the “concentration needed for efficacy in vitro (boosting levofloxacin activity)” value ([3]; K. pneumoniae WT, Fig. 2) was 9 to 38 µM. For the same compound, the percentage resazurin turnover ([3]; Lev 0.00 ng/mL + EPI 2.34 uM) was 110% and 85% and 105%, the “Median REMA values (percentage resazurin turnover)” value ([3]; Lev 0.00 ng/mL + EPI 2.34 uM) was 105% and the percentage resazurin turnover ([3]; Lev 0.00 ng/mL + EPI 4.69 uM) was 106% and 98% and 117%. The “Median REMA values (percentage resazurin turnover)” value ([3]; Lev 0.00 ng/mL + EPI 4.69 uM) was 106%, the percentage resazurin turnover ([3]; Lev 0.00 ng/mL + EPI 9.38 uM) was 97% and 89% and 110% and the “Median REMA values (percentage resazurin turnover)” value ([3]; Lev 0.00 ng/mL + EPI 9.38 uM) was 97%. For the same compound, the percentage resazurin turnover ([3]; Lev 0.00 ng/mL + EPI 18.75 uM) was 66% and 85% and 116%, the “Median REMA values (percentage resazurin turnover)” value ([3]; Lev 0.00 ng/mL + EPI 18.75 uM) was 85% and the percentage resazurin turnover ([3]; Lev 0.00 ng/mL + EPI 37.50 uM) was 112% and 98% and 109%. For the same compound, the “Median REMA values (percentage resazurin turnover)” value ([3]; Lev 0.00 ng/mL + EPI 37.50 uM) was 109%, the percentage resazurin turnover ([3]; Lev 0.00 ng/mL + EPI 75.00 uM) was 89% and 138% and 121% and the “Median REMA values (percentage resazurin turnover)” value ([3]; Lev 0.00 ng/mL + EPI 75.00 uM) was 121%. The percentage resazurin turnover ([3]; Lev 0.00 ng/mL + EPI 150.00 uM) was 94% and 132% and 118%, the “Median REMA values (percentage resazurin turnover)” value ([3]; Lev 0.00 ng/mL + EPI 150.00 uM) was 118% and the percentage resazurin turnover ([3]; Lev 0.00 ng/mL + EPI 300 uM) was 107% and 80% and 87%. The “Median REMA values (percentage resazurin turnover)” value ([3]; Lev 0.00 ng/mL + EPI 300 uM) was 87%, the “concentration at which boosting of levofloxacin activity starts” value ([3]; parental K. pneumoniae strain, checkerboard) was “around 9 µM” and the checkerboard growth readout ([4]; EPI 2.3 µM) was 90. For the same compound, the checkerboard growth readout ([4]; EPI 4.7 µM) was 91, the checkerboard growth readout ([4]; EPI 9.4 µM) was 93 and the checkerboard growth readout ([4]; EPI 19 µM) was 96. It also gave a checkerboard growth readout ([4]; EPI 38 µM) of 124, a checkerboard growth readout ([4]; EPI 75 µM) of 151 and a checkerboard growth readout ([4]; EPI 150 µM) of 151. The checkerboard growth readout ([4]; EPI 300 µM) was 103, the “reversion of RamR-mediated levofloxacin resistance, in words” value ([4]; K. pneumoniae RamR^mut) was “completely reverted” and the checkerboard growth readout ([5]; EPI 2.3 µM) was 87. The checkerboard growth readout ([5]; EPI 4.7 µM) was 75, the checkerboard growth readout ([5]; EPI 9.4 µM) was 86 and the checkerboard growth readout ([5]; EPI 19 µM) was 93. The checkerboard growth readout ([5]; EPI 38 µM) was 98, the checkerboard growth readout ([5]; EPI 75 µM) was 128 and the checkerboard growth readout ([5]; EPI 150 µM) was 153. The checkerboard growth readout ([5]; EPI 300 µM) was 136, the “modulation of levofloxacin MIC, in words” value ([5]; K. pneumoniae AcrB^V448E RamR^mut) was “No modulation” and the checkerboard growth readout ([6]; EPI 2.3 µM) was 105. It also gave a checkerboard growth readout ([6]; EPI 4.7 µM) of 99, a checkerboard growth readout ([6]; EPI 9.4 µM) of 105 and a checkerboard growth readout ([6]; EPI 19 µM) of 100. It also gave a checkerboard growth readout ([6]; EPI 38 µM) of 109, a checkerboard growth readout ([6]; EPI 75 µM) of 118 and a checkerboard growth readout ([6]; EPI 150 µM) of 109. The checkerboard growth readout ([6]; EPI 300 µM) was 93, the “boosting of levofloxacin activity, in words” value ([6]; K. pneumoniae AcrB^V448E) was “boosting was no longer observed” and the “Median REMA values” ([6]; BDM91288 2.34 uM) was 105%. The percentage resazurin turnover ([6]; BDM91288 2.34 uM) was 105% and 87% and 109%, the “Median REMA values” ([6]; BDM91288 4.69 uM) was 99% and the percentage resazurin turnover ([6]; BDM91288 4.69 uM) was 99% and 89% and 111%. For the same compound, the “Median REMA values” ([6]; BDM91288 9.38 uM) was 105%, the percentage resazurin turnover ([6]; BDM91288 9.38 uM) was 105% and 90% and 114% and the “Median REMA values” ([6]; BDM91288 18.75 uM) was 100%. For the same compound, the percentage resazurin turnover ([6]; BDM91288 18.75 uM) was 100% and 93% and 138%, the “Median REMA values” ([6]; BDM91288 37.50 uM) was 109% and the percentage resazurin turnover ([6]; BDM91288 37.50 uM) was 99% and 109% and 157%. The “Median REMA values” ([6]; BDM91288 75.00 uM) was 118%, the percentage resazurin turnover ([6]; BDM91288 75.00 uM) was 124% and 117% and 118% and the “Median REMA values” ([6]; BDM91288 150.00 uM) was 109%. For the same compound, the percentage resazurin turnover ([6]; BDM91288 150.00 uM) was 109% and 152% and 108%, the “Median REMA values” ([6]; BDM91288 300 uM) was 93% and the percentage resazurin turnover ([6]; BDM91288 300 uM) was 114% and 93% and 89%.
